Measured values: article PMC7363588, “Mapping of the FGF14:Nav1.6 complex interface reveals FLPK as a functionally active peptide modulating excitability” (Physiological Reports, 2020)
Several values for one entry are separate records, joined by “and”; a condition that tells them apart may be missing. Equal values may be shown once. Entries after “also recorded” stand apart in the source; their conditions may differ. Peptide text beside a SMILES is read from it.

Target: T1, Nav1.6 (Homo sapiens, UniProt Q9UQD0)
T1 construct: expressed in transfected cells
Test: Whole-cell patch-clamp, HEK-Nav1.6 cells expressing GFP
Assay type: cell-based
Conditions: 50 μM FLPK
Method: HEK293 cells were maintained in DMEM and F‐12 (Invitrogen, Carlsbad, CA), supplemented with 0.05% glucose, 0.5 mM pyruvate, 10% fetal bovine serum, 100 units/ml penicillin, and 100 µg/ml streptomycin (Invitrogen), and incubated at 37 °C with 5% CO2. HEK293 cells stably expressing the human Nav1.6 channel (hereafter referred to as HEK‐Nav1.6 cells) were maintained similarly except for the addition of 500 μg/ml G418 (Invitrogen) to maintain stable Nav1.6 expression. Cells were transfected at 80%–90% confluence with equal amount (1 μg each) of plasmid pairs using Lipofectamine 2000 (Invitrogen) according to manufacturer's instructions. HEK‐Nav1.6 cells were washed and replated at very low density prior to electrophysiological recordings (Ali et al., 2016, 2018; Scala et al., 2018; Wadsworth et al., 2019).
HEK‐Nav1.6 cells transfected with GFP or FGF14‐GFP were plated at low density on glass cover slips for 3–4 hr and subsequently transferred to the recording chamber. Recordings were performed at room temperature (20–22°C) 24 hr posttransfection using a MultiClamp 700B amplifier (Molecular Devices, Sunnyvale, CA). The composition of recording solutions consisted of the following salts; extracellular (mM): 140 NaCl, 3 KCl, 1 MgCl2, 1 CaCl2, 10 HEPES, 10 glucose, pH 7.3; intracellular (mM): 130 CH3O3SCs, 1 EGTA, 10 NaCl, 10 HEPES, pH 7.3. Membrane capacitance and series resistance were estimated by the dial settings on the amplifier and compensated for electronically by 70%–75%. Data were acquired at 20 kHz and filtered at 5 kHz prior to digitization and storage. All experimental parameters were controlled by Clampex 9.2 software (Molecular Devices) and interfaced to the electrophysiological equipment using a Digidata 1,200 analog‐digital interface (Molecular Devices). Voltage‐dependent inward currents for HEK‐Nav1.6 cells were evoked by depolarization to test potentials between −100 mV and +60 mV from a holding potential of −70 mV followed by a voltage prestep pulse of −120 mV (Nav1.6). Steady‐state (fast) inactivation of Nav channels was measured with a paired‐pulse protocol. From the holding potential, cells were stepped to varying test potentials between −120 mV (Nav1.6) and +20 mV (prepulse) prior to a test pulse to −20 mV.
Current densities were obtained by dividing Na^+ current (INa) amplitude by membrane capacitance. Current–voltage relationships were generated by plotting current density as a function of the […]. Conductance (GNa) was calculated by the following equation: GNa=INa/Vm‐Erev where INa ^+ is the current amplitude at voltage Vm, and Erev is the Na^+ reversal potential.
Activation curves were derived by plotting normalized GNa as a function of test potential and fitted using the Boltzmann equation: GNa/GNa,Max=1/1+eVa‐Em/k where GNa,Max is the maximum conductance, Va is the membrane potential of half‐maximal activation, Vm is the membrane voltage and k is the slope factor.
The membrane potential of half‐maximal activation, Em is the membrane voltage and k is the slope factor. For steady‐state inactivation, normalized current amplitude (INa/INa,Max) at the test potential was plotted as a function of prepulse potential (Vm) and fitted using the Boltzmann equation: INa/INa,Max=1/1+e‐Vh‐Em/k where Vh is the potential of half‐maximal inactivation, Em is the membrane voltage, and k is the slope factor.
To test whether FLKP had any modulatory effects on Nav1.6‐mediated Na^+ currents, we used whole‐cell patch‐clamp electrophysiology in HEK293 cells stably expressing Nav1.6 (HEK‐Nav1.6) that were transiently transfected with either GFP (HEK‐Nav1.6 GFP) or FGF14‐1b‐GFP (HEK‐Nav1.6 FGF14‐GFP); each group was either treated with FLPK (50 μM from a stock solution dissolved in DMSO) or 0.1% DMSO alone (vehicle) (Figure 5a‐c). […]

T1 sequence (Q9UQD0 whole entry): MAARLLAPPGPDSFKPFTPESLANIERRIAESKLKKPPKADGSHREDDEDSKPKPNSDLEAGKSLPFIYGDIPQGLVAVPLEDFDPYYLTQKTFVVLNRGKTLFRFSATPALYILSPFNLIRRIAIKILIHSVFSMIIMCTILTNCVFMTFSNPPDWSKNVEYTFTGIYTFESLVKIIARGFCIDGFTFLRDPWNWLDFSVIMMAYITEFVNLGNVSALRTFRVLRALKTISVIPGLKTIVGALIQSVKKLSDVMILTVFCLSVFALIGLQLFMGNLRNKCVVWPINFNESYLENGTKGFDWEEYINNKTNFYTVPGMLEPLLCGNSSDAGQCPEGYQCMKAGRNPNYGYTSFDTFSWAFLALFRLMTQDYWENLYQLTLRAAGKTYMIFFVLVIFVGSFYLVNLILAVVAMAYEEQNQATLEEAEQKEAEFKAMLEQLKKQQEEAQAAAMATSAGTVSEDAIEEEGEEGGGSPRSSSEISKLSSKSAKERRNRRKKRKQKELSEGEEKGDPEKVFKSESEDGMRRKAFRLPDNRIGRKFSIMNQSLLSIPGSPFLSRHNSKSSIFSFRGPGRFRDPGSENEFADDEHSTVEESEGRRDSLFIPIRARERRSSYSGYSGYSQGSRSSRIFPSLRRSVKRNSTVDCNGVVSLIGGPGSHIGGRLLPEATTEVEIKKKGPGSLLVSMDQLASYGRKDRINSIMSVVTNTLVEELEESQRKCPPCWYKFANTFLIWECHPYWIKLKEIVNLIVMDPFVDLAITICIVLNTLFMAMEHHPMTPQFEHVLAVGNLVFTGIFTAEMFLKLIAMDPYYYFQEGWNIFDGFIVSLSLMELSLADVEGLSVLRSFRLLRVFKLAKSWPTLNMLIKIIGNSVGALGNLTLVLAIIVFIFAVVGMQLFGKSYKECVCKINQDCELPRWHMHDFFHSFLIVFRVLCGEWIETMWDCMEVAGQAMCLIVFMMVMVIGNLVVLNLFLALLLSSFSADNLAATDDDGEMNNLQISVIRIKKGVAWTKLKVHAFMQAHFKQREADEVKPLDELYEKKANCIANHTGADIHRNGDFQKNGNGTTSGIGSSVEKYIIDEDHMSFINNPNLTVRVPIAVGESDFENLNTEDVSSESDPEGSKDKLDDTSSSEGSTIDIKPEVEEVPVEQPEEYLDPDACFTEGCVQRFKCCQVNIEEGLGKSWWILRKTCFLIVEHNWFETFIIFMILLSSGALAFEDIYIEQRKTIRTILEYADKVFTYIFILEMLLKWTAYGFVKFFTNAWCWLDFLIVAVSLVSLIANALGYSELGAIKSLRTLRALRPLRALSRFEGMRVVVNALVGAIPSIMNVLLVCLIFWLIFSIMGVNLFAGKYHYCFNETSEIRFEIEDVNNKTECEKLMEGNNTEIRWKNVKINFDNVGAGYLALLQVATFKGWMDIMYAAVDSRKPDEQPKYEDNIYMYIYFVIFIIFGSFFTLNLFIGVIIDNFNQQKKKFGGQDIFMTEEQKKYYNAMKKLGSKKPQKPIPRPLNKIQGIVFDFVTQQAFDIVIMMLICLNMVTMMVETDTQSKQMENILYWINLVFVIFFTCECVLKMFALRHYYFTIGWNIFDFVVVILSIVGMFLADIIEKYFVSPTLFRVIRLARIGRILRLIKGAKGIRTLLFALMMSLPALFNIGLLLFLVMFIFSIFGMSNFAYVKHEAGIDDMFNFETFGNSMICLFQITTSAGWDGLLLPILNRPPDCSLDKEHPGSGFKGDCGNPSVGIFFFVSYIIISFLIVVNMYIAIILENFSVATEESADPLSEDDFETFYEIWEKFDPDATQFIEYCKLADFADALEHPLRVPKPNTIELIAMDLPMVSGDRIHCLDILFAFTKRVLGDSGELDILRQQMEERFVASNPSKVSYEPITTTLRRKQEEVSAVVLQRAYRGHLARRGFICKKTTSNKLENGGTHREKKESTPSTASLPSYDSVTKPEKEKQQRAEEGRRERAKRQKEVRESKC

**Q.** Which “effect on Nav1.6 currents without FGF14” value (HEK-Nav1.6 GFP vs 0.1% DMSO) does the source give for `CC(=O)N[C@@H](Cc1ccccc1)C(=O)N[C@@H](CC(C)C)C(=O)N1CCC[C@H]1C(=O)N[C@@H](CCCCN)C(N)=O` [FLPK] (Ac-FLPK-NH2) here?
**A.** Its value is “not statistically different; also recorded: no measurable effects in cells expressing Nav1.6 alone”.

**Q.** And the “Tau (τ), decay time constant of I Na” value (HEK-Nav1.6 GFP, at −10 mV, mean ± SEM (n = 12), DMSO 1.0 ± 0.08, p = .0495)?
**A.** The value was 0.8 ± 0.03 ms and 0.8 ± 0.03 (12)r ms.

**Q.** And the “Peak density (I Na)” value (HEK-Nav1.6 GFP, at −10 mV, mean ± SEM (n = 14), DMSO −58.6 ± 13.9 (Table 3))?
**A.** Its value is −80.8 ± 12.2 pA/pF and −80.8 ± 12.2 (14) pA/pF.

**Q.** What about the Kinact (HEK-Nav1.6 GFP, mean ± SEM (n = 10), DMSO 5.8 ± 0.4) of the same compound?
**A.** Its Kinact is 6.1 ± 0.5 (10) mV.

**Q.** What about the “Steady-state Inactivation (V1/2)” value (HEK-Nav1.6 GFP, mean ± SEM (n = 10), DMSO −58.9 ± 0.8) of the same compound?
**A.** The value was −59.3 ± 1.9 (10) mV.

**Q.** And the Kact (HEK-Nav1.6 GFP, mean ± SEM (n = 12), DMSO 4.3 ± 0.2)?
**A.** The Kact was 3.9 ± 0.3 (12) mV.

**Q.** What about the “Activation (V1/2)” value (HEK-Nav1.6 GFP, mean ± SEM (n = 12), DMSO −21.8 ± 1.3) of the same compound?
**A.** The value was −20.5 ± 1.2 (12) mV.
